{
  "source": "patent US8344145B2",
  "about": "“Salts of 2-substituted quinolines” (priority 2008, dated 2013)",
  "key": {"[1]": {"system": "female CD-1 mice", "assay": "Acute toxicity: blood biochemical parameters on the final day (nephrotoxicity, hepatotoxicity)", "details": "blood sample on final day (day 14)", "description": "(§1) 250 mg of carboxymethylcellulose are dissolved in 50 ml of a 5% glucose solution. 5 ml aliquots containing 0.5% of Tween 80 are emulsified with the quinoline salts (final concentrations at 0.4 mg/ml, 4 mg/ml and 40 mg/ml). The emulsions are subsequently homogenized. The emulsions are administered by force feeding in a single dose to four groups of five female CD-1 mice at the concentrations of 10 mg/kg, 100 mg/kg and 1000 mg/kg and without compounds (control group). The control group receives a glucose-comprising emulsion containing 0.5% of carboxymethyl-cellulose (CMC) and […]. The behavior of the animals is observed and the number of deaths is counted after 1 min, 15 min, 30 min, 1 h, 4 h, 8 h and each day for 14 days. On the final day, a blood sample is taken. Biochemical analyses are carried out in order to evaluate the nephrotoxicity and the hepatotoxicity, the levels of creatinine, of aspartate aminotransferase (ASAT), of alanine aminotransferase (ALAI) and of cholesterol being quantitatively determined."}, "[2]": {"assay": "Hygroscopicity: water vapour sorption/desorption isotherm (DVS-1000)", "format": "physicochemical", "details": "25° C./60% relative humidity, in comparison with weight equilibrated at 0% relative humidity at 25° C.", "description": "The hygroscopicity of the 2-(n-propyl)quinoline camsylate crystals is evaluated by studying the sorption/desorption isotherm of water in the vapor phase on a device of DVS-1000 type sold by SMS.\nThe sample, analyzed in a quartz pan with a specimen size of the order of 10 mg, is subjected to two cycles of variation in relative humidity (RH) which are linked together continuously. Each cycle comprises two stages, adsorption and then desorption of water, during which the relative humidity in the measuring chamber is increased and then decreased gradually according to the conditions described in table 2.\nThe sample is first dried under a stream of filtered dry air until its weight has stabilized. The stages of adsorption and of desorption are then made successively. The carrier gas used to maintain the relative humidity at a set percentage is air dried upstream of the device and delivered at a flow rate of 100 ml/min. During the progression of the program, the temperature in the measuring chamber is maintained at 25° C."}, "[3]": {"system": "female CD-1 mice", "details": "5 animals", "description": "as §1"}, "[4]": {"assay": "Chemical stability of solutions in five solvents, HPLC daily for 9 days", "details": "200 μg/ml in methanol, pH 7 buffer, camphorsulfonic acid pH 2, DMSO, CMC 0.5%/Tween 80 0.5%, 4° C., ambient with light, ambient without light", "procedure": "The quinoline salts are dissolved at a concentration of 200 μg/ml in five different solvents: methanol, an aqueous solution buffered at pH 7, an aqueous camphorsulfonic acid solution at pH 2, dimethyl sulfoxide (DMSO) and an aqueous solution comprising a mixture of carboxymethylcellulose at 0.5% and Tween 80 at 0.5%.\nEach preparation is divided into three parts which are stored under different conditions of temperature and of luminosity: at 4° C., at ambient temperature under the influence of light and at ambient temperature with the exclusion of light. The samples are diluted (1:20) and then analyzed by high performance liquid chromotography (HPLC) daily for 9 days.\nUse was made, in carrying out the high performance liquid chromotography analysis, of a Waters LC system comprising a model 600 pump with inline degassing and, as detector, a 996 photodiode detector device. The acquisition of the data was carried out by the use of the Empower® program (Waters, France). The column used was a Symmetry Shield RP18, 3.5 μm 4.6×150 mm. […] The UV absorbance spectra were recorded at between 210 and 400 nm. The chromatogram of the propyl salt was recorded at 233 nm and that of the alcohol derivative at 249 nm."}},
  "note": "Like-named read-outs stand apart in the source and are kept apart here.",
  "data": [
    {"smiles": "CC1(C)C2CCC1(CS(=O)(=O)O)C(=O)C2.CCCc1ccc2ccccc2n1", "note": "(centres unmarked) [Camphorsulfonate salt of 2-(n-propyl)quinoline]", "values": [
      {"measurement": "ALAT", "setting": "[1]; dose 10 mg/kg oral", "value": "215 ± 123", "unit": "IU/l"},
      {"measurement": "ASAT", "setting": "[1]; dose 10 mg/kg oral", "value": "410 ± 57", "unit": "IU/l"},
      {"measurement": "Cholesterol", "setting": "[1]; dose 10 mg/kg oral", "value": "3.9 ± 0.3", "unit": "mM"},
      {"measurement": "Creatinine", "setting": "[1]; dose 10 mg/kg oral", "value": "<18", "unit": "µM"},
      {"measurement": "ALAT", "setting": "[1]; dose 100 mg/kg oral", "value": "168 ± 67", "unit": "IU/l"},
      {"measurement": "ASAT", "setting": "[1]; dose 100 mg/kg oral", "value": "515 ± 72", "unit": "IU/l"},
      {"measurement": "Cholesterol", "setting": "[1]; dose 100 mg/kg oral", "value": "4.1 ± 0.5", "unit": "mM"},
      {"measurement": "Creatinine", "setting": "[1]; dose 100 mg/kg oral", "value": "<18", "unit": "µM"},
      {"measurement": "ALAT", "setting": "[1]; dose 1 g/kg oral", "value": "199 ± 89", "unit": "IU/l"},
      {"measurement": "ASAT", "setting": "[1]; dose 1 g/kg oral", "value": "422 ± 187", "unit": "IU/l"},
      {"measurement": "Cholesterol", "setting": "[1]; dose 1 g/kg oral", "value": "3.8 ± 0.4", "unit": "mM"},
      {"measurement": "Creatinine", "setting": "[1]; dose 1 g/kg oral", "value": "<18", "unit": "µM"},
      {"measurement": "increase in weight (water sorption)", "setting": "[2]", "value": "less than 2%"},
      {"measurement": "acute toxicity observation", "setting": "[3]; single dose 10 mg/kg oral route", "value": "absence of toxicity"},
      {"measurement": "acute toxicity observation", "setting": "[3]; single dose 100 mg/kg oral route", "value": "absence of toxicity"},
      {"measurement": "mice showing signs of lethargy", "setting": "[3]; single dose 1 g/kg oral route, t15 min", "value": "t15 min = 3 mice showed"},
      {"measurement": "lethargic mice", "setting": "[3]; single dose 1 g/kg oral route, t1 h", "value": "t1 h = 2 lethargic mice"},
      {"measurement": "acute toxicity observation", "setting": "[3]; single dose 1 g/kg oral route, t4 h", "value": "t4 h = absence of toxicity"},
      {"measurement": "chemical stability in solution", "setting": "[4]; listed as 2-(n-propyl)quinoline in the form of the camphorsulfonic acid salt", "value": "chemical stability compatible with the development of a medicament"},
      {"measurement": "chemical stability in solution", "setting": "[4]; listed as propyl salt", "value": "stable whatever the conditions tested"}
    ]}
  ]
}
